Ki data for 39 molecules are collected here from US8722896B2, “Prokineticin receptor antagonists and uses thereof” (The Regents of the University of California, priority 2008, dated 2014).

pKi: −log10 of the molar value.

One assay deals with recombinant PKR1 (Homo sapiens (Human), UniProt Q8TCW9). Briefly: Aequorin-based Ca2+ mobilization antagonist assay, CHO cells expressing PKR1. Format: cell-based.
Settings: not given
Here is the method:
An aequorin-based luminescent assay for calcium mobilization was used to measure mobilization of intracellular Ca^2+ (Bullock et al., Mol Pharmacol 65, 582-588, 2004). Chinese hamster ovary (CHO) cells stably expressing photoprotein aequorin and recombinant PKR1 or PKR2 were tested by this method. Briefly, the cells were charged in Opti-MEM (Invitrogen) containing 8 μM of coelenterazine cp at 37° C. for 2 hours. Cells were detached by brief typsinization and maintained in Hank's Balanced Salt Solution (HBSS) plus 10 mM HEPES (pH7.5) and 0.1% BSA at about 5×10^5 cells/ml. Luminescence measurements were made using a Berthold luminometer.
All compounds were diluted in HBSS plus 10 mM HEPES (pH7.5) and 0.1% BSA. To test the agonist activity, 100 μl of cells were injected into the tubes with 20 μl of compounds. For antagonist assays, 80 μl cells were incubated in the tubes with 20 μl different concentrations of antagonists at room temperature for 20 minutes, and then 100 μl of recombinant PK2 were injected. The IC50 obtained from the assays were then converted to Ki values using the formula: IC50/(1+[PK2]/EC50PK2).
The following compounds were prepared using the above synthetic routes and protocols by varying the starting materials, reagents or conditions used. The requisite reagents were either commercially available, described in the literature, or readily synthesized by one skilled in the art. The potency of these compounds in antagonizing PK2-stimulated calcium mobilization were tested in Chinese hamster ovary (CHO) cells that stably express recombinant PKR1 or PKR2.
On the technique in general: A change in cytosolic calcium serves as a functional read-out for many receptors and channels.
Usually pKi stands for the Ki on a negative log10 scale, so that one unit is a factor of ten. As for `CC(C)CN(Cc1cc(Cl)c2c(c1)OCCCO2)C(=O)C1CCN(Cc2ccccc2)O1` (racemic), the pKi was 5.66.
Turning to `CC(C)CN(Cc1cc(Cl)c2c(c1)CCCCO2)C(=O)[C@@H]1CCCN(Cc2cccc3ccn(C)c23)C1`, the pKi was 8.03.
Still for that read-out and setting: as for `CC(C)CN(Cc1cc(Cl)c2c(c1)CCCCO2)C(=O)C1CN(Cc2cccc3ccn(C)c23)CCO1` (racemic), the figure is 8.00; as for `Cc1cccc(CNCC(C)C(=O)N(Cc2cc(Cl)c3c(c2)OCCCO3)CC(C)C)c1C` (racemic), 7.89.
With `COc1ccccc1CN1CCC[C@@H](C(=O)N(Cc2ccc3c(c2)OCCCO3)CC(C)C)C1`, the pKi is 7.41.
For `CC(C)CN(Cc1cc(Cl)c2c(c1)CCCCO2)C(=O)[C@@H]1CCN(Cc2cccc3c2ccn3C)C1`, the pKi is 7.94.
The same measure, in the same setting: as for `CC(C)CN(Cc1cc(Cl)c2c(c1)OCCCO2)C(=O)C(C)CNCc1cccc2ccn(C)c12` (stereo not drawn), the figure is 7.78; as for `CCc1cccc(CN2CC[C@@H](C(=O)N(Cc3cc(Cl)c4c(c3)OCCCO4)CC(C)C)C2)c1`, 7.05; as for `CC(C)CN(Cc1cc(Cl)c2c(c1)OCCCO2)C(=O)C1CN(Cc2cccc3ccn(C)c23)CCO1` (racemic), 7.61.
For `CC(C)CN(Cc1cc(Cl)c2c(c1)OCCCO2)C(=O)[C@@H]1CCCN(Cc2cccc3c2NCC3)C1`, the pKi was 8.48.
Still for that read-out and setting: in the case of `Cc1cccc(CN2CCC[C@@H](C(=O)N(Cc3cc(Cl)c4c(c3)OCCCO4)CC(C)C)C2)c1` it was 7.53.
On the same count and under the same terms, in the case of `CCc1c(C)cccc1CN1CC[C@@H](C(=O)N(Cc2cc(Cl)c3c(c2)OCCCO3)CC(C)C)C1` it was 6.65; in that of `CC(C)CN(Cc1cc(Cl)c2c(c1)OCCCO2)C(=O)C(C)CNCc1cccc2c1OCO2` (stereo not drawn), 7.35; in that of `CC(C)CN(Cc1cc(Cl)c2c(c1)OCCCO2)C(=O)C(C)CNCc1cccc2c1OCCO2` (racemic), 7.23.
As to `CC(C)CN(Cc1cc(Cl)c2c(c1)OCCCO2)C(=O)[C@@H]1CCN(Cc2cccc(N)c2)C1`, the pKi was 6.88.
Still for that read-out and setting: in the case of `Cc1ccccc1CN1CCOC(C(=O)N(Cc2cc(Cl)c3c(c2)OCCCO3)CC(C)C)C1` (racemic) it was 7.43.
The same measure, in the same setting: in the case of `CC(C)CN(Cc1cc(Cl)c2c(c1)OCCCO2)C(=O)[C@@H]1CCN(Cc2ccc(F)c(N)c2)C1` it was 7.62; in that of `Cc1cccc(CNCC(C)C(=O)N(Cc2cc(Cl)c3c(c2)OCCCO3)CC(C)C)c1` (racemic), 7.35.
On the same count and under the same terms, as for `CCc1c(C)cccc1CNCC(C)C(=O)N(Cc1cc(Cl)c2c(c1)OCCCO2)CC(C)C` (racemic), the figure is 6.65; as for `Cc1ccccc1CNCC(C)C(=O)N(Cc1cc(Cl)c2c(c1)OCCCO2)CC(C)C` (racemic), 7.71; as for `CC(C)CN(Cc1cc(Cl)c2c(c1)OCCCO2)C(=O)C1CN(Cc2cccc3c2ccn3C)CCO1` (racemic), 7.90.
In the case of `CC(C)CN(Cc1cc(Cl)c2c(c1)CCCCO2)C(=O)C1CN(Cc2cccc3cc[nH]c23)CCO1` (racemic), the pKi was 8.40.
On the same count and under the same terms, in the case of `COc1ccccc1CN1CC[C@@H](C(=O)N(Cc2ccc3c(c2)OCCCO3)CC(C)C)C1` it was 7.89.
On the same count and under the same terms, in the case of `Cc1cccc(C)c1CNCC(C)C(=O)N(Cc1cc(Cl)c2c(c1)OCCCO2)CC(C)C` (racemic) it was 7.36; in that of `Cc1ccc(C)c(CN2CCOC(C(=O)N(Cc3cc(Cl)c4c(c3)OCCCO4)CC(C)C)C2)c1` (racemic), 7.08; in that of `CC(C)CN(Cc1cc(Cl)c2c(c1)OCCCO2)C(=O)[C@H](C)CNCc1cc(F)c(F)cc1F`, 6.59.
On to `CC(C)CN(Cc1cc(Cl)c2c(c1)OCCCO2)C(=O)[C@@H]1CCCN(Cc2cccc3[nH]ccc23)C1`, for which the pKi is 7.42.
Same read-out and setting: as for `COc1ccccc1CN1CCC[C@@H](C(=O)N(Cc2cc(Cl)c3c(c2)OCCCO3)CC(C)C)C1`, the figure is 7.41.

Still in this assay, the particulars now being: antagonism of PK2-stimulated calcium mobilization in CHO cells; Ki = IC50/(1+[PK2]/EC50PK2); read-out: Ki for PKR1.
In the case of `CC(=O)Oc1cccc(CN2CCC[C@@H](C(=O)N(Cc3cc(Cl)c4c(c3)OCCCO4)CC(C)C)C2)c1` [(−)-(3R)-1-(3-acetoxybenzyl)-N-(9-chloro-3,4-dihydro-2H-1,5-benzodioxepin-7-ylmethyl)-N-isobutylpiperidine-3-carboxamide], the pKi is 6.97.
Consider `CC(C)CN(Cc1cnc2c(c1)OCCCO2)C(=O)C1CCCN(Cc2cccc3cc[nH]c23)C1` (single isomer, unassigned; (-)), for which the pKi is 6.98.
Consider `CC(C)CN(Cc1cc(Cl)c2c(c1)OCC(F)(F)CO2)C(=O)[C@@H]1CCN(Cc2ccccc2)C1` [(−)-(3R)-1-Benzyl-N-(9-chloro-3,3-difluoro-3,4-dihydro-2H-1,5-benzodioxepin-7-ylmethyl)-N-isobutylpyrrolidine-3-carboxamide], for which the pKi was 6.65.
Same read-out and setting: in the case of `COc1cc(F)ccc1CN1CCC[C@@H](C(=O)N(Cc2cc(Cl)c3c(c2)OCCCO3)CC(C)C)C1` [(−)-(3R)-1-(4-Fluoro-2-methoxybenzyl)-N-(9-chloro-3,4-dihydro-2H-1,5-benzodioxepin-7-ylmethyl)-N-isobutylpiperidine-3-carboxamide] it was 7.19; in that of `COc1cc(CNCC(C)C(=O)N(Cc2cc(Cl)c3c(c2)OCCCO3)CC(C)C)ccc1F` (racemic) [(±)-2-Methyl-3-((3-methoxy-4-fluoro)benzylamino)-N-(9-chloro-3,4-dihydro-2H-1,5-benzodioxepin-7-ylmethyl)-N-isobutylpropanamide], 7.94.
On the same count and under the same terms, in the case of `CC(C)CN(Cc1cc(Cl)c2c(c1)OCCCO2)C(=O)[C@@H]1CCCN(Cc2cccc3c2N(C)CC3)C1` [(−)-(3R)-1-(N-methyl-indolin-7-ylmethyl)-N-(9-chloro-3,4-dihydro-2H-1,5-benzodioxepin-7-ylmethyl)-N-isobutylpiperidine-3-carboxamide] it was 7.06; in that of `COc1cc(F)ccc1CN1CC[C@@H](C(=O)N(Cc2cc(Cl)c3c(c2)OCCCO3)CC(C)C)C1` [(−)-(3R)-1-(4-Fluoro-2-methoxybenzyl)-N-(9-chloro-3,4-dihydro-2H-1,5-benzodioxepin-7-ylmethyl)-N-isobutylpyrrolidine-3-carboxamide], 8.11; in that of `COc1cc(F)ccc1CNCC(C)C(=O)N(Cc1cc(Cl)c2c(c1)OCCCO2)CC(C)C` (racemic) [(±)-2-Methyl-3-((2-methoxy-4-fluoro)benzylamino)-N-(9-chloro-3,4-dihydro-2H-1,5-benzodioxepin-7-ylmethyl)-N-isobutylpropanamide], 7.30.
On the same count and under the same terms, as for `CC(=O)Oc1cccc(CN2CCOC(C(=O)N(Cc3cc(Cl)c4c(c3)OCCCO4)CC(C)C)C2)c1` (racemic) [(±)-(3R)-1-(3-acetoxybenzyl)-N-(9-chloro-3,4-dihydro-2H-1,5-benzodioxepin-7-ylmethyl)-N-isobutylmorpholine-3-carboxamide], the figure is 8.07.
Consider `COc1cc(CN2CCC[C@@H](C(=O)N(Cc3cc(Cl)c4c(c3)OCCCO4)CC(C)C)C2)ccc1F` [(−)-(3R)-1-(4-Fluoro-3-methoxybenzyl)-N-(9-chloro-3,4-dihydro-2H-1,5-benzodioxepin-7-ylmethyl)-N-isobutylpiperidine-3-carboxamide], for which the pKi is 8.06.
Still for that read-out and setting: as for `COc1cc(CN2CC[C@@H](C(=O)N(Cc3cc(Cl)c4c(c3)OCCCO4)CC(C)C)C2)ccc1F` [(−)-(3R)-1-(4-Fluoro-3-methoxybenzyl)-N-(9-chloro-3,4-dihydro-2H-1,5-benzodioxepin-7-ylmethyl)-N-isobutylpyrrolidine-3-carboxamide], the figure is 8.02.
